Experimental data published in patent US10851105B2, “Bicyclic heterocycles as FGFR4 inhibitors” (Incyte Corporation, priority 2014, dated 2020).
Where two headings read alike, the source gives them in different places.

Legend:
FGFR4 = FGFR4 (Homo sapiens (Human), UniProt P22455); test: FGFR Enzymatic Assay (FRET peptide phosphorylation), FGFR4
Procedure: (§1) The inhibitor potency of the exemplified compounds was measured in an enzyme assay that measures peptide phosphorylation using FRET measurements to detect product formation. Inhibitors were serially diluted in DMSO and a volume of 0.5 μL was transferred to the wells of a 384-well plate. For FGFR3, a 10 μL volume of FGFR3 enzyme (Millipore) diluted in assay buffer (50 mM HEPES, 10 mM MgCl2, 1 mM EGTA, 0.01% Tween-20, 5 mM DTT, pH 7.5) was added to the plate and pre-incubated for a time between 5-10 minutes and up to 4 hours. Appropriate controls (enzyme blank and enzyme with no inhibitor) were included on the plate. […] The plate was incubated at 25° C. for 1 hr. […] The plate was allowed to equilibrate for ˜1 hr before scanning the wells on a PheraStar plate reader (BMG Labtech).
(§2) The enzymes were purchased from Millipore or Invitrogen.
(§3) GraphPad prism3 was used to analyze the data. The IC50 values were derived by fitting the data to the equation for a sigmoidal dose-response with a variable slope. Y=Bottom+(Top-Bottom)/(1+10^((Log IC50−X)*HillSlope)) where X is the logarithm of concentration and Y is the response.

FGFR1 = FGFR1 (Homo sapiens (Human), UniProt P11362); test: FGFR Enzymatic Assay (FRET peptide phosphorylation), FGFR1; conditions: for FGFR1/FGFR4: IC50 ratio
Procedure: as §1, §2, §3

FGFR2 = FGFR2 (Homo sapiens (Human), UniProt P21802); test: FGFR Enzymatic Assay (FRET peptide phosphorylation), FGFR2; conditions: for FGFR2/FGFR4: IC50 ratio
Procedure: as §1, §2, §3

FGFR3 = FGFR3 (Homo sapiens (Human), UniProt P22607); test: FGFR Enzymatic Assay (FRET peptide phosphorylation), FGFR3; conditions: for FGFR3/FGFR4: IC50 ratio
Procedure: Inhibitors were serially diluted in DMSO and a volume of 0.5 μL was transferred to the wells of a 384-well plate. For FGFR3, a 10 μL volume of FGFR3 enzyme (Millipore) diluted in assay buffer (50 mM HEPES, 10 mM MgCl2, 1 mM EGTA, 0.01% Tween-20, 5 mM DTT, pH 7.5) was added to the plate and pre-incubated for a time between 5-10 minutes and up to 4 hours. Appropriate controls (enzyme blank and enzyme with no inhibitor) were included on the plate. […] The plate was incubated at 25° C. for 1 hr. […] The plate was allowed to equilibrate for ˜1 hr before scanning the wells on a PheraStar plate reader (BMG Labtech).
as §3

[1] = read-out: FGFR4 IC50, pre-incubated for 5 to 10 minutes
[2] = read-out: FGFR4 IC50, pre-incubated for 4 hours
[3] = pre-incubated for 5 to 10 minutes
[4] = read-out: FGFR1 IC50, pre-incubated for 5 to 10 minutes
[5] = read-out: FGFR1 IC50, pre-incubated for 4 hours
[6] = read-out: FGFR2 IC50, pre-incubated for 5 to 10 minutes
[7] = read-out: FGFR2 IC50, pre-incubated for 4 hours
[8] = read-out: FGFR3 IC50, pre-incubated for 5 to 10 minutes
[9] = read-out: FGFR3 IC50, pre-incubated for 4 hours
[10] = FGFR1 IC50 (nM), pre-incubated for 4 hours
[11] = FGFR4 IC50 (nM), pre-incubated for 5 to 10 minutes
[12] = FGFR4 IC50 (nM), pre-incubated for 4 hours
[13] = FGFR1 IC50 (nM), pre-incubated for 5 to 10 minutes

Sequence of FGFR1 (P11362 22-822): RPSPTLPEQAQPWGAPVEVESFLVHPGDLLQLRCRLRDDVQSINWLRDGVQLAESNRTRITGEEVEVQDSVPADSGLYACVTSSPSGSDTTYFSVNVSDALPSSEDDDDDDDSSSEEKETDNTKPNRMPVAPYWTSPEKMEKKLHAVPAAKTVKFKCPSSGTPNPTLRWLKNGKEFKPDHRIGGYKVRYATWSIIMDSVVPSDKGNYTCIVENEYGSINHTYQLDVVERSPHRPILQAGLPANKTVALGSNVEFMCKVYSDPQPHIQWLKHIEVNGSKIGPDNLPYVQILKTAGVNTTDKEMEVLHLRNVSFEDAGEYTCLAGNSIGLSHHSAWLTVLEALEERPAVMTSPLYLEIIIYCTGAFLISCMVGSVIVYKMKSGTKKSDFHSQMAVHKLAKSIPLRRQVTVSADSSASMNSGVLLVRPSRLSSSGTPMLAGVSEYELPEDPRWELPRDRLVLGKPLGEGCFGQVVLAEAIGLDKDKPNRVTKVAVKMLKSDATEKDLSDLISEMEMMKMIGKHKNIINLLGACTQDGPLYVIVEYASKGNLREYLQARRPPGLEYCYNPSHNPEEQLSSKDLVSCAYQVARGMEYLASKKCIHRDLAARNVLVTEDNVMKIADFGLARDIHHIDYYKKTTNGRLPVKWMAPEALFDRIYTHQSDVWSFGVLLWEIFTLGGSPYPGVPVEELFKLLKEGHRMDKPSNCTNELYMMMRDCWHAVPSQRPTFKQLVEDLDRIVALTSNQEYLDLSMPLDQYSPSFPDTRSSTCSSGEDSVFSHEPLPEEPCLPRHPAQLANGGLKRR
Sequence of FGFR2 (P21802 22-821): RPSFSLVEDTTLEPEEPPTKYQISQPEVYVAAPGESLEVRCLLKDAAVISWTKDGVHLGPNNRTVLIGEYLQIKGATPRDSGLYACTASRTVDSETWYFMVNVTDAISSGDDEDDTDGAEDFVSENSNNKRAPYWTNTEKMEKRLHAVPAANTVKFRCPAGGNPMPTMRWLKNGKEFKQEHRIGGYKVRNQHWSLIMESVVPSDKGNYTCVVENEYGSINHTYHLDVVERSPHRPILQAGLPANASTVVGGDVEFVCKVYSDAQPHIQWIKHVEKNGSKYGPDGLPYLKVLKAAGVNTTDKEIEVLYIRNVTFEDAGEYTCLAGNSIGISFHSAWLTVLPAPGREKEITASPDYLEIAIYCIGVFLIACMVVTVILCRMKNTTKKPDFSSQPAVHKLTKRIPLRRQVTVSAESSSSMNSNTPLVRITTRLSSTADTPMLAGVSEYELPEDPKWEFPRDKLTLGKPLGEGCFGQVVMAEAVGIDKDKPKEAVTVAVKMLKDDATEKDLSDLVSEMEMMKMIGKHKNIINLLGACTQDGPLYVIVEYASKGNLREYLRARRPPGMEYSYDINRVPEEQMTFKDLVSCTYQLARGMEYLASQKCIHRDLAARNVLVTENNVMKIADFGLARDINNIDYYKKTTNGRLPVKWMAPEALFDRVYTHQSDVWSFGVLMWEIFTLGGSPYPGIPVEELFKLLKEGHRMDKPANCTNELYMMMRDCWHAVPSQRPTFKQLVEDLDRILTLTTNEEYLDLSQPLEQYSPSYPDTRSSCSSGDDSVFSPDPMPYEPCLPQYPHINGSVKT
Sequence of FGFR4 (P22455 22-802): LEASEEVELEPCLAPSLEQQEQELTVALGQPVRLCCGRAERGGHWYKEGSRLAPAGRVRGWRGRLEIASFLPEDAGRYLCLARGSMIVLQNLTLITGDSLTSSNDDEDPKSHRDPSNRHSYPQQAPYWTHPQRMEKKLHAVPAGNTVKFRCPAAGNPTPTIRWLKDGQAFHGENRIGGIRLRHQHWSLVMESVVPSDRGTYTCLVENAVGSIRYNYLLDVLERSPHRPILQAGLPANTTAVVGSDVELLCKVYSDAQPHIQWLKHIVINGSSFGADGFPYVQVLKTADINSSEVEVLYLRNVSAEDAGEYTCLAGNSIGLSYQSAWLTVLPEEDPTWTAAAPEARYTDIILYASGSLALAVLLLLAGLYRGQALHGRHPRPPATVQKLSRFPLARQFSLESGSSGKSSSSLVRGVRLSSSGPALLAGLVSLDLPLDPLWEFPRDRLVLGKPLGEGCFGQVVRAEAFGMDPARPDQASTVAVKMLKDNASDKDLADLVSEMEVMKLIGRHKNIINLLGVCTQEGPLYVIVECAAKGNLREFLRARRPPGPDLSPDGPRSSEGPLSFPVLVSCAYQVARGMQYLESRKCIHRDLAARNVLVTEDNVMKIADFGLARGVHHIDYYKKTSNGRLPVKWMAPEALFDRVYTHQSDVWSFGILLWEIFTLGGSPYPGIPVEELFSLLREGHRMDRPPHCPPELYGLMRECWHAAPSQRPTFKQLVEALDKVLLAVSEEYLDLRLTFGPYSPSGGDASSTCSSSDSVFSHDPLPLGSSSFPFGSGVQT
Sequence of FGFR3 (P22607 23-806): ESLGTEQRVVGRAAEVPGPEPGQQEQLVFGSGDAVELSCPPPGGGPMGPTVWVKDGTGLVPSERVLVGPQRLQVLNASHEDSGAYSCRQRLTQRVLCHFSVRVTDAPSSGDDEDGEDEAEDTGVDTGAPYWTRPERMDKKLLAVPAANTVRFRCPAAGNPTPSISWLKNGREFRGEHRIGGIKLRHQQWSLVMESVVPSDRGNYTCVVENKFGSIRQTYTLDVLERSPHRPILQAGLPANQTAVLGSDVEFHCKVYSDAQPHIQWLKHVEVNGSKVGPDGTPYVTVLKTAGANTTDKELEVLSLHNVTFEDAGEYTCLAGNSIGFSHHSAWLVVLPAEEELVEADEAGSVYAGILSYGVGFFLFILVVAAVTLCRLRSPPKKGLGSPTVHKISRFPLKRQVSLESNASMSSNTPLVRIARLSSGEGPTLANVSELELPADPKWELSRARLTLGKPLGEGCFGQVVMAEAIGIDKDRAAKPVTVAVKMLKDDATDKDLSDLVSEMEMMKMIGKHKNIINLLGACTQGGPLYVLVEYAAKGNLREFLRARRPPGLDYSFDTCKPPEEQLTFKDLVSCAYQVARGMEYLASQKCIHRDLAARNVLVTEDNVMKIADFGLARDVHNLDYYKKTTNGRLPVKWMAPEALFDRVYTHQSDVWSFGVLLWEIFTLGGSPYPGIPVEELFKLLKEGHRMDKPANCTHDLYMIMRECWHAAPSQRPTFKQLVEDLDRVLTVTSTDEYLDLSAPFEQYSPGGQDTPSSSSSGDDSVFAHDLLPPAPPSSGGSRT

Row | Structure (SMILES) | IC50 (FGFR4; [1]) [nM] | IC50 (FGFR4; [2]) [nM] | FGFR1/FGFR4 (FGFR1; [3]) | FGFR1/FGFR4 (FGFR1; pre-incubated for 4 hours) | IC50 (FGFR1; [4]) [nM] | IC50 (FGFR1; [5]) [nM] | FGFR2/FGFR4 (FGFR2; [3]) | FGFR2/FGFR4 (FGFR2; pre-incubated for 4 hours) | IC50 (FGFR2; [6]) [nM] | IC50 (FGFR2; [7]) [nM] | FGFR3/FGFR4 (FGFR3; [3]) | FGFR3/FGFR4 (FGFR3; pre-incubated for 4 hours) | IC50 (FGFR3; [8]) [nM] | IC50 (FGFR3; [9]) [nM] | IC50 (FGFR1; [10]) [nM] | IC50 (FGFR2) [nM] | IC50 (FGFR3) [nM] | IC50 (FGFR4; [11]) [nM] | IC50 (FGFR4; [12]) [nM] | IC50 (FGFR1; [13]) [nM]
1 | C=CC(=O)Nc1ccccc1Nc1cc2c(cn1)CN(c1c(F)c(OC)cc(OC)c1F)C(=O)C21CCOCC1 [Example 8, N-(2-(2-(2,6-difluoro-3,5-dimethoxyphenyl)-3-oxo-2,2′,3,3′,5′,6′-hexahydro-1H-spiro[[2,7]naphthyridine-4,4′-pyran]-6-ylamino)phenyl)acrylamide] | > 200 | < 10 | >10 | >100 | > 200 | > 200 | >10 | >100 | > 200 | > 200 | >10 | >100 | > 200 | > 200 | – | – | – | – | – | –
2 | C=CC(=O)Nc1cccc(C)c1Nc1cc2c(cn1)CN(c1c(F)c(OC)cc(OC)c1F)C(=O)C21CC1 [Example 5, N-(2-(2′-(2,6-difluoro-3,5-dimethoxyphenyl)-3′-oxo-2′,3′-dihydro-1′H-spiro [cyclopropane-1,4′-[2,7]naphthyridine]-6′-ylamino)-3-methylphenyl)acrylamide] | < 10 | < 10 | >10 | >100 | > 200 | > 200 | >10 | >100 | > 200 | > 200 | >10 | >100 | > 200 | > 200 | – | – | – | – | – | –
3 | C=CC(=O)Nc1ccc(N2CCN(C)CC2)cc1Nc1cc2c(cn1)CN(c1c(F)c(OC)cc(OC)c1F)C(=O)C21CC1 [Example 11, N-(2-(2′-(2,6-difluoro-3,5-dimethoxyphenyl)-3′-oxo-2′,3′-dihydro-1′H-spiro [cyclopropane-1,4′-[2,7]naphthyridine]-6′-ylamino)-4-(4-methylpiperazin-1-yl)phenyl)acrylamide] | < 10 | < 10 | >10 | >25 | > 200 | – | >10 | >25 | > 200 | – | >10 | >100 | > 200 | > 200 | 30 to 200 | 30 to 200 | – | – | – | –
4 | C=CC(=O)Nc1ccc(N2CCOCC2)cc1Nc1cc2c(cn1)CN(c1c(F)c(OC)cc(OC)c1F)C(=O)C21CC1 [Example 10, N-(2-{[2′-(2,6-difluoro-3,5-dimethoxyphenyl)-3′-oxo-2′,3′-dihydro-1′H-spiro [cyclopropane-1,4′-[2,7]naphthyridin]-6′-yl]amino}-4-morpholin-4-ylphenyl)acrylamide] | < 10 | < 10 | >10 | >100 | > 200 | – | >10 | >100 | > 200 | > 200 | >10 | >100 | 30 to 200 | – | 30 to 200 | – | 30 to 200 | – | – | –
5 | C=CC(=O)N[C@H]1CCC[C@H]1Oc1ncc2c(n1)C1(CC1)C(=O)N(c1c(F)c(OC)cc(OC)c1F)C2 [Example 12, N-((1 S,2R)-2-(6′-(2,6-difluoro-3,5-dimethoxyphenyl)-7′-oxo-6′,7′-dihydro-5′H-spiro[cyclopropane-1,8′-pyrido[4,3-d]pyrimidine]-2′-yloxy)cyclopentyl)acrylamide] | – | – | >10 | >100 | > 200 | > 200 | >10 | >100 | > 200 | > 200 | >10 | >100 | > 200 | > 200 | – | – | – | 30 to 200 | 10 to 30 | –
6 | C=CC(=O)Nc1ccccc1Nc1cc2c(cn1)CN(c1c(F)c(OC)cc(OC)c1F)C(=O)C21CCCC1 [Example 7, N-(2-(2′-(2,6-difluoro-3,5-dimethoxyphenyl)-3′-oxo-2′,3′-dihydro-1′H-spiro [cyclopentane-1,4′-[2,7]naphthyridine]-6′-ylamino)phenyl)acrylamide] | < 10 | < 10 | >10 | >100 | – | – | >10 | >100 | > 200 | – | >10 | >100 | > 200 | > 200 | 30 to 200 | 30 to 200 | – | – | – | 30 to 200
7 | C=CC(=O)NC1COCC1Nc1cc2c(cn1)CN(c1c(F)c(OC)cc(OC)c1F)C(=O)C21CC1 (racemic) [Example 4, N-(4-(2′-(2,6-difluoro-3,5-dimethoxyphenyl)-3′-oxo-2′,3′-dihydro-1′H-spiro[cyclopropane-1,4′-[2,7]naphthyridine]-6′-ylamino)tetrahydrofuran-3-yl)acrylamide] | – | – | >10 | >100 | – | – | >10 | >100 | > 200 | – | >10 | >100 | > 200 | – | 30 to 200 | > 200 | > 200 | < 10 | < 10 | > 200
8 | C=CC(=O)Nc1ccccc1Nc1cc2c(cn1)CN(c1c(F)c(OC)cc(OC)c1F)C(=O)C21CCOC1 (stereo not drawn) [Example 9, N-(2-(2′-(2,6-difluoro-3,5-dimethoxyphenyl)-3′-oxo-2′,3′,4,5-tetrahydro-1′H,2H-spiro[furan-3,4′-[2,7]naphthyridine]-6′-ylamino)phenyl)acrylamide] | – | < 10 | >10 | >100 | > 200 | > 200 | >10 | >100 | > 200 | > 200 | >10 | >100 | > 200 | > 200 | – | – | – | 10 to 30 | – | –
9 | C=CC(=O)N(C)c1cc2c(cn1)CN(c1c(F)c(OC)cc(OC)c1F)C(=O)C21CC1 [Example 2, N-(2′-(2,6-difluoro-3,5-dimethoxyphenyl)-3′-oxo-2′,3′-dihydro-1′H-spiro [cyclopropane-1,4′-[2,7]naphthyridine]-6′-yl)-N-methylacrylamide] | – | < 10 | >5 | >10 | – | – | >2 | >5 | 30 to 200 | – | >5 | >10 | > 200 | – | 30 to 200 | 30 to 200 | 30 to 200 | 10 to 30 | – | 30 to 200
10 | C=CC(=O)Nc1ccccc1Nc1cc2c(cn1)CN(c1c(F)c(OC)cc(OC)c1F)C(=O)C2(C)C [Example 6, N-(2-(7-(2,6-difluoro-3,5-dimethoxyphenyl)-5,5-dimethyl-6-oxo-5,6,7,8-tetrahydro-2,7-naphthyridin-3-ylamino)phenyl)acrylamide] | – | < 10 | >10 | >100 | > 200 | > 200 | >10 | >100 | > 200 | > 200 | >10 | >100 | > 200 | > 200 | – | – | – | 10 to 30 | – | –
11 | C=CC(=O)Nc1ccccc1Nc1cc2c(cn1)CN(c1c(F)c(OC)cc(OC)c1F)C(=O)C21CC1 [Example 1, N-(2-(2′-(2,6-difluoro-3,5-dimethoxyphenyl)-3′-oxo-2′,3′-dihydro-1H-spiro[cyclopropane-1,4′-[2,7]naphthyridine]-6′-ylamino)phenyl)acrylamide] | < 10 | < 10 | >10 | >100 | – | – | >10 | >100 | 30 to 200 | – | >10 | >100 | 30 to 200 | – | 30 to 200 | 30 to 200 | 30 to 200 | – | – | 30 to 200
12 | C=CC(=O)NC1CCCCC1Nc1cc2c(cn1)CN(c1c(F)c(OC)cc(OC)c1F)C(=O)C21CC1 (racemic) [Example 3, N-(2-(2′-(2,6-difluoro-3,5-dimethoxyphenyl)-3′-oxo-2′,3′-dihydro-1′H-spiro [cyclopropane-1,4′-[2,7]naphthyridine]-6′-ylamino)cyclohexyl)acrylamide] | – | – | >5 | >25 | – | – | >5 | >25 | > 200 | – | >10 | >100 | > 200 | – | > 200 | > 200 | > 200 | 30 to 200 | < 10 | > 200
